Values quoted from earlier work in article PMC9851200, “Multiparameter phenotypic screening for endogenous TFEB and TFE3 translocation identifies novel chemical series modulating lysosome function” (Autophagy, 2022).

Tests used:
Set-up in all cases: method as in original PKIS2 published data
[1] = molecular target: T1, kinases (KINOMEscan panel) (Homo sapiens, UniProt O43318); settings: Published KINOMEscan; ref original PKIS2 published data; cited from earlier work
T1 sequence (O43318 1-606): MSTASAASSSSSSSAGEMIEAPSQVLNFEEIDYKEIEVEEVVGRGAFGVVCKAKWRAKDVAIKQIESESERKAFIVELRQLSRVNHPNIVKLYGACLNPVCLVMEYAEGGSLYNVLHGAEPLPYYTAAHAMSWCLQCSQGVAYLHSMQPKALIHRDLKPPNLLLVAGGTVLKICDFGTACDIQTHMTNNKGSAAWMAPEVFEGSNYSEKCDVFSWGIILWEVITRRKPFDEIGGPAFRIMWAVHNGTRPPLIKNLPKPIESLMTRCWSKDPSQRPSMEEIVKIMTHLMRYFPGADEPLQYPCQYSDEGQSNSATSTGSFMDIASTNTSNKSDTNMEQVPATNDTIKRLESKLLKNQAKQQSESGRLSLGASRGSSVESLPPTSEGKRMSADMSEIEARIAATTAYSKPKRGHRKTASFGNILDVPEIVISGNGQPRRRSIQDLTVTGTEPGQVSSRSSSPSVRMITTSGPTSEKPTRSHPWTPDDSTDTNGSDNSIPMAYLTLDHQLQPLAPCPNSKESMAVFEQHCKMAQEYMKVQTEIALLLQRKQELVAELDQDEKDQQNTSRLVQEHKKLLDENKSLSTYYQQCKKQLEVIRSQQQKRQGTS

[2] = molecular target: T2, kinases (KINOMEscan panel) (Homo sapiens, UniProt P29322); settings: kinase EPHA8; Published KINOMEscan; ref original PKIS2 published data; cited from earlier work
T2 sequence (P29322 28-1005): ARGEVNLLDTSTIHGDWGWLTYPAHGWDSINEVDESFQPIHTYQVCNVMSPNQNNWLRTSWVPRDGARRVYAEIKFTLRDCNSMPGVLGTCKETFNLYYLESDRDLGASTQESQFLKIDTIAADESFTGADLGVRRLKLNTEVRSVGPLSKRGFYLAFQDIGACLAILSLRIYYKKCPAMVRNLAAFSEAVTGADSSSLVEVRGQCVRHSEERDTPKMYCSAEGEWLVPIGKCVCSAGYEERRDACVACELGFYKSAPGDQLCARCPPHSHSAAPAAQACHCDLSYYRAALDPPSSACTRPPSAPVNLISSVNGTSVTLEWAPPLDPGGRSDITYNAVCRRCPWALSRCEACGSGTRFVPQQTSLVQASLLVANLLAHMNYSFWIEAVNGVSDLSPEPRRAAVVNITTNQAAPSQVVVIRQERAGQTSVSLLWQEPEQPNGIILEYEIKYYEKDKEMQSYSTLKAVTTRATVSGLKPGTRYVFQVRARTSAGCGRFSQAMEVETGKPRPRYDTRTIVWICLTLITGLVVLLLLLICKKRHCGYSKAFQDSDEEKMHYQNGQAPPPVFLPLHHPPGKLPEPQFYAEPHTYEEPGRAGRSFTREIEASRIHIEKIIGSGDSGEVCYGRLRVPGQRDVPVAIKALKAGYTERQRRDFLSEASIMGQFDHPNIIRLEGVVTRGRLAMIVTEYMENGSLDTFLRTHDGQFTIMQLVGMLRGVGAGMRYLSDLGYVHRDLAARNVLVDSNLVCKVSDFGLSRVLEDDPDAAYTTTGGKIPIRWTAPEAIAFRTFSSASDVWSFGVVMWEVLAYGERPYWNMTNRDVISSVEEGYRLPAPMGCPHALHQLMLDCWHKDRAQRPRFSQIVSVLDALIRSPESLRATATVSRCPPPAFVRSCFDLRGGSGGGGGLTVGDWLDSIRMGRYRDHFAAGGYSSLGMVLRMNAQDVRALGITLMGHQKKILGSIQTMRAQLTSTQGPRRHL

[3] = molecular target: kinases (KINOMEscan panel) (Homo sapiens, UniProt P78368); settings: kinase CSNK1G2; Published KINOMEscan; ref original PKIS2 published data; cited from earlier work
[4] = molecular target: kinases (KINOMEscan panel) (Homo sapiens, UniProt Q15303); settings: kinase ERBB4; Published KINOMEscan; ref original PKIS2 published data; cited from earlier work
[5] = molecular target: T3, kinases (KINOMEscan panel) (Homo sapiens, UniProt Q9H2K8); settings: kinase TAOK3; Published KINOMEscan; ref original PKIS2 published data; cited from earlier work
T3 sequence (Q9H2K8 1-898): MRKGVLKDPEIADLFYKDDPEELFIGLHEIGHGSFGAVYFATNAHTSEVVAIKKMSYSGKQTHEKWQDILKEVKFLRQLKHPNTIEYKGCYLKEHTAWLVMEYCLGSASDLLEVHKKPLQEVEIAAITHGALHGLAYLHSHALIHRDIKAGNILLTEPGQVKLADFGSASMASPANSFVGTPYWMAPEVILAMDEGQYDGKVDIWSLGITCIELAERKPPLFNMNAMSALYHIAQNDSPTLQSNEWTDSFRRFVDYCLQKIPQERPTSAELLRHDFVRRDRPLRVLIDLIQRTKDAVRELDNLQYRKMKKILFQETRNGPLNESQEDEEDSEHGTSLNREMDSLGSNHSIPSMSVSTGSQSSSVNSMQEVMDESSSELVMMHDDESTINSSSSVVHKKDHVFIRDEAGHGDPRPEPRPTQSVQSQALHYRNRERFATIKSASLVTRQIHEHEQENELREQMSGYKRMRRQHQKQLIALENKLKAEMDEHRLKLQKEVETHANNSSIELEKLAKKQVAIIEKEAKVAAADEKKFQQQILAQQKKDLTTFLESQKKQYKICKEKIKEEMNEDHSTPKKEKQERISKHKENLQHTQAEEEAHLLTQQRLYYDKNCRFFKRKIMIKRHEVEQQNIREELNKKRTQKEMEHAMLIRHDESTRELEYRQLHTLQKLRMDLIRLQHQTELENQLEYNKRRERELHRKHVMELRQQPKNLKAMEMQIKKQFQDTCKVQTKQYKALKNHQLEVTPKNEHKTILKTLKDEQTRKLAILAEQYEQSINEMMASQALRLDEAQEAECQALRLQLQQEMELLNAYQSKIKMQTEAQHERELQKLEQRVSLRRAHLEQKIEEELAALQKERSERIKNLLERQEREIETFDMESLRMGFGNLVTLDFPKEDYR

[6] = molecular target: kinases (KINOMEscan panel) (Homo sapiens, UniProt Q9HCP0); settings: kinase CSNK1G1; Published KINOMEscan; ref original PKIS2 published data; cited from earlier work
Sequence of kinases (KINOMEscan panel) (Homo sapiens, UniProt Q9HCP0) (Q9HCP0 whole entry): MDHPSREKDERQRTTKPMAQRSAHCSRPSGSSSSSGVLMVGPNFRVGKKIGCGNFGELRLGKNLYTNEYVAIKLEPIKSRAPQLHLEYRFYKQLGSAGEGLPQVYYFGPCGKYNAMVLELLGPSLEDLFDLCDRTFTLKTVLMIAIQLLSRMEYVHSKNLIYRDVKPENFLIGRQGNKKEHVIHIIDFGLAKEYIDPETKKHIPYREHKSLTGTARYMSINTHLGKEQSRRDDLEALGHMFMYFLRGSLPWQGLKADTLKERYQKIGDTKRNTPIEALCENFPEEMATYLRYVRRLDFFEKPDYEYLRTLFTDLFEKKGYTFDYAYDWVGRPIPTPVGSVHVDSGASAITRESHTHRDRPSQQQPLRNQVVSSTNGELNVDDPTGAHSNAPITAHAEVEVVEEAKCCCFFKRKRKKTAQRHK

Sequence of kinases (KINOMEscan panel) (Homo sapiens, UniProt P78368) (P78368 whole entry): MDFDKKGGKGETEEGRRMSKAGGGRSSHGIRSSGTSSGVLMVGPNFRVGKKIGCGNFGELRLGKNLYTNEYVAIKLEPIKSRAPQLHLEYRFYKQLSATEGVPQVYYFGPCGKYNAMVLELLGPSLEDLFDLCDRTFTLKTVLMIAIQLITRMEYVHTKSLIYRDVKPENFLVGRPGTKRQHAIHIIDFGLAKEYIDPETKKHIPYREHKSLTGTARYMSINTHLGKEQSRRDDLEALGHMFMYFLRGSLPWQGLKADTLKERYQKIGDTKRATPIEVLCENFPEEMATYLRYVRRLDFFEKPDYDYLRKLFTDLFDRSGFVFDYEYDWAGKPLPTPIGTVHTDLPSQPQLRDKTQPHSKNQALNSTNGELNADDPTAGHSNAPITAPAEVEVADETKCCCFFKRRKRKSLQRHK
Sequence of kinases (KINOMEscan panel) (Homo sapiens, UniProt Q15303) (Q15303 26-1308): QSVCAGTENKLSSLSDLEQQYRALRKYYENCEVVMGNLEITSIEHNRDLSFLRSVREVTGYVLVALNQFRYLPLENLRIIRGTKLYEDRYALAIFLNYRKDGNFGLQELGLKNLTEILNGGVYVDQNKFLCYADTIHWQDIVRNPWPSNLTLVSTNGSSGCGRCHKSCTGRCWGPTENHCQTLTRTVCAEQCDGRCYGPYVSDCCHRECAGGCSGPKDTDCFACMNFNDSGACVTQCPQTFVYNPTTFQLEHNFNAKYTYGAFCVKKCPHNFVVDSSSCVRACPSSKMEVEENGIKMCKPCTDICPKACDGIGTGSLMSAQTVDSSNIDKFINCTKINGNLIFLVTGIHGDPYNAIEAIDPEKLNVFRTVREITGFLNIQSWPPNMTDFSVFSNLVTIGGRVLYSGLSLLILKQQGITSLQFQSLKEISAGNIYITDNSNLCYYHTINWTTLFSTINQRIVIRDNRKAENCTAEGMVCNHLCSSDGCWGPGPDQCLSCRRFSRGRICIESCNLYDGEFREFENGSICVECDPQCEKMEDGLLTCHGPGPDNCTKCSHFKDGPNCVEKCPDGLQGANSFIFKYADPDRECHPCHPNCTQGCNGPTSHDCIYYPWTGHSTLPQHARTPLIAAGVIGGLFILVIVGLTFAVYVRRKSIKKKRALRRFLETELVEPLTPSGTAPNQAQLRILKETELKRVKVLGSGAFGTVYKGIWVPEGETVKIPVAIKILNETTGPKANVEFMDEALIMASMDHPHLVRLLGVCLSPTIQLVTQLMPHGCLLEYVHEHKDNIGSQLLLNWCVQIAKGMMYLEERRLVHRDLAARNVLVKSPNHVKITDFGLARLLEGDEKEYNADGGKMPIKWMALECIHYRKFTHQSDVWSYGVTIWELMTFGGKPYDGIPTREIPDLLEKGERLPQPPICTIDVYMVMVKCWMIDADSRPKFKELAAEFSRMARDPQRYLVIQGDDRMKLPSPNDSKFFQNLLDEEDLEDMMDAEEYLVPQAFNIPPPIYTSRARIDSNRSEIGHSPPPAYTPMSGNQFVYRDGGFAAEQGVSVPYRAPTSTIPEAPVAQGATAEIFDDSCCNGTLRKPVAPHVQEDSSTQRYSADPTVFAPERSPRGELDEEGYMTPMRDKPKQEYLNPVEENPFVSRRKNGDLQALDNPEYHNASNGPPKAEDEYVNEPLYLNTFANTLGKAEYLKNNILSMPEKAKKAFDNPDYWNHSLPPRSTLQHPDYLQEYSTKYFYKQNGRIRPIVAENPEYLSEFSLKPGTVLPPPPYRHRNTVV

Cc1cccc(-c2nc(Nc3ccncc3)c3ccccc3n2)n1 [NK215]
KINOMEscan MAP3K7 [1]: 0
KINOMEscan EPHA8 [2]: 7
KINOMEscan CSNK1G2 [3]: 20
KINOMEscan ERBB4 [4]: 0
KINOMEscan TAOK3 [5]: 0
KINOMEscan CSNK1G1 [6]: 0
